What was measured:
Type in all cases: cell-based
[1] = test system: human macrophage cell line THP-1; assay: LPS-induced TNF-alpha gene transcription in human macrophages; details: THP-1, LPS 1 μg/ml, 24 hours; 0.15 μM and 0.5 μM; FIG. 5B
Experimental: The human monocyte line THP-1 (ATCC TIB-202) was cultured in RPMI medium with 10% FCS, 1% sodium pyruvate and 1% penicillin/streptomycin (100×) (all Gibco, Invitrogen) in 75 ml cell culture flasks (Sarstedt). For differentiation into tissue macrophages the line was cultured for 3 hours in normal cell culture medium containing 0.5 μM phorbol 12-myristate 13-acetate (Sigma) and afterwards in phorbol 12-myristate 13-acetate free medium for at least 24 hours.
FIG. 5B illustrates the effect of low molecular weight PSA (PSA-20) on the pro-inflammatory cytokine TNF-alpha. The human macrophage cell line THP-1 was treated with lipopolysaccharides (LPS, 1 μg/ml) and PSA-20 (different concentrations) for 24 hours. Gene transcripts for tumor necrosis factor-α a (TNFα) were determined by quantitative RT-PCR and normalized to GAPDH. In detail, RNA isolation was performed using RNeasy Mini Kit (Qiagen) and transcription with the SuperScript First-Strand Synthesis System (Invitrogen). Quantitative RT-PCR with specific oligonucleotides (GAPDH: […] (SEQ ID NO: 1) and […] (SEQ ID NO: 2); TNFα: […] (SEQ ID NO: 3) and […] (SEQ ID NO: 4)) was performed using SYBR green PCR Master Mix with the Mastercycler epgradients S (Eppendorf). Results were normalized to GAPDH. Quantification using the delta-CT method was carried out.

[2] = test system: co-culture of human iPSdM1 microglia and iPS cell-derived neurons with amyloid-β1-42; assay: Microglia-neuron co-culture with fibrillary amyloid-β1-42, 48 hours (neurite length); details: 48 hours co-culture with microglia and 1 μM fibrillary amyloid-β1-42; without PSA-20 0.64+/−0.03; FIG. 4G
Experimental: Human induced pluripotent stem cell derived microglia (iPSdM) were obtained from iPS cells. iPSdM-1 line was used in this study generated from the iLB-C-35m-r1 clone (Bonn). iPSdM-1 (here named microglia or microglial cells) were culture in N2-medium consisting of DMEM/F12 culture medium (Gibco) supplemented with 1% N2 (Invitrogen), 0.48 mM L-glutamine (Gibco) and 100 μg/ml penicillin/streptomycin (Gibco). Cells were cultured with high density and split 1:5. After splitting, cells recovered and attached again to the new dishes.
Human induced pluripotent stem (iPS) cells (Foreskin-1, WiCell) were used for generation of primitive neural stem cell (pNSC) and their differentiation into neurons according to a modified protocol, which was used to obtain primitive neural precursors from human embryonic stem cells. Briefly, iPS cells were cultured on feeder cells to form small colonies. […]
Cells were fixed for 15 minutes with 4% paraformaldehyde (PFA), blocked and permeabilized for 60 minutes with a solution that contained bovine serum albumin (10% BSA) and normal goat serum (5% nGS) and 0.1% TritonX-100. […] Ten images were randomly collected from each experimental setup by confocal laser scanning microscopy (Fluoview 1000, Olympus) and total lengths of neuronal branches from β-tubulin-III stained neurites was determined done by the NIH ImageJ/NeuronJ software.

[3] = test system: human microglia stimulated with neural debris or Drusen-like debris; assay: Debris-induced superoxide release of human microglia (macular degeneration culture model, DHE)
Experimental: Second, effect of PSA-20 on microglia stimulated with neural cellular debris was analyzed. Drusen containing cellular debris is one characteristics of senile macular degeneration. To study the effect of degenerated material on the retinal microglia, we prepared neural debris by hypotonic and mechanic lysis of human neurons derived from induced pluripotent stem cells. Then, we treated the human microglial line derived from induced pluripotent stem cells and analyzed the effect of PSA-20. Superoxide release was determined by the fluorescent dye DHE. […] Cells were fixed with 4% paraformaldehyde plus 0.25% glutaraldehyde and analyzed by confocal microscopy. For the quantification of DHE staining intensity six pictures of each experiment were obtained and analyzed by ImageJ software (NIH). […] Cells were fixed and the intensity of DHE was quantified by confocal microscopy. […]
To obtain Drusen-like debris from the retina, human retinal pigment epithelium ARPE-19 cells were treated with 80 nM okadaic acid for 24 hours at 37° C. and 5% CO2, centrifuged, washed three times with PBS and the pellet was frozen at −20° C. […] Cells were fixed and the release of superoxide was quantified by the intensity of the DHE dye. […]

poly-(α(2→8)Neu5Ac)n [PSA-20]
LPS-induced gene transcription of TNF-alpha [1]: reduced | relative neurite length [2]: 0.82+/−0.03 | relative superoxide production ([3]; Drusen-like debris from ARPE-19 cells, 10 μg/ml PSA-20, 30 minutes, without PSA-20 1.38+/−0.02, FIG. 7C): 0.92+/−0.22 | cellular neural debris induced superoxide production ([3]; neural debris from human neurons, FIG. 7B): prevented

Source: US9944721B2, “Polysialic acid and use for treatment of neurodegenerative and neuroinflammatory diseases” (RHEINISCHE FRIEDRICH-WILHELMS UNIVERSITÄT BONN, priority 2013, dated 2018)
